Reference: patent US10399940B2, “Substituted pyrrolidines and methods of use” (AbbVie S.à.r.l., priority 2016, dated 2019)
Where two headings read alike, the source gives them in different places.

Biological target: T1, F508delCFTR (Homo sapiens, UniProt P13569, DEL508-508)
T1 construct: expressed in transfected cells; host or cells: CFBE41o- (human lung derived epithelial cell line), doxycycline-inducible expression
Assay: Cell Surface Expression-Horse Radish Peroxidase (CSE-HRP) assay
Type: cell-based
Conditions: CFBE41o-F508delCFTR-HRP cells; for Maximum % activity (with co-corrector): with co-corrector (2 μM); for Maximum % activity (with co-corrector) / Maximum % activity (without co-corrector): normalized to on-plate positive control, highest concentration 20 μM
In short: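 CFBE41o- cells expressed F508delCFTR with HRP in the fourth exofacial loop, induced by 0.5 μg/mL doxycycline for 72 h at 37 °C. Compounds alone or with 2 μM co-corrector ran 18–24 h at 33 °C, 8-point 3-fold from 20 μM. Washed-cell luminol luminescence was normalized to DMSO and positive control, fitted sigmoidally for EC50 (three plates).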

[1] = test compound without co-corrector, 18-24 hours at 33° C., read-out: EC50 (without co-corrector)
[2] = with co-corrector (2 μM of 3-[(2R,4R)-4-({[1-(2,2-difluoro-1,3-benzodioxol-5-yl)cyclopropyl]carbonyl}amino)-7-methoxy-3,4-dihydro-2H-chromen-2-yl]benzoic acid), read-out: EC50 (with co-corrector)

T1 sequence (P13569 with tags, fused parts or gaps DEL508-508): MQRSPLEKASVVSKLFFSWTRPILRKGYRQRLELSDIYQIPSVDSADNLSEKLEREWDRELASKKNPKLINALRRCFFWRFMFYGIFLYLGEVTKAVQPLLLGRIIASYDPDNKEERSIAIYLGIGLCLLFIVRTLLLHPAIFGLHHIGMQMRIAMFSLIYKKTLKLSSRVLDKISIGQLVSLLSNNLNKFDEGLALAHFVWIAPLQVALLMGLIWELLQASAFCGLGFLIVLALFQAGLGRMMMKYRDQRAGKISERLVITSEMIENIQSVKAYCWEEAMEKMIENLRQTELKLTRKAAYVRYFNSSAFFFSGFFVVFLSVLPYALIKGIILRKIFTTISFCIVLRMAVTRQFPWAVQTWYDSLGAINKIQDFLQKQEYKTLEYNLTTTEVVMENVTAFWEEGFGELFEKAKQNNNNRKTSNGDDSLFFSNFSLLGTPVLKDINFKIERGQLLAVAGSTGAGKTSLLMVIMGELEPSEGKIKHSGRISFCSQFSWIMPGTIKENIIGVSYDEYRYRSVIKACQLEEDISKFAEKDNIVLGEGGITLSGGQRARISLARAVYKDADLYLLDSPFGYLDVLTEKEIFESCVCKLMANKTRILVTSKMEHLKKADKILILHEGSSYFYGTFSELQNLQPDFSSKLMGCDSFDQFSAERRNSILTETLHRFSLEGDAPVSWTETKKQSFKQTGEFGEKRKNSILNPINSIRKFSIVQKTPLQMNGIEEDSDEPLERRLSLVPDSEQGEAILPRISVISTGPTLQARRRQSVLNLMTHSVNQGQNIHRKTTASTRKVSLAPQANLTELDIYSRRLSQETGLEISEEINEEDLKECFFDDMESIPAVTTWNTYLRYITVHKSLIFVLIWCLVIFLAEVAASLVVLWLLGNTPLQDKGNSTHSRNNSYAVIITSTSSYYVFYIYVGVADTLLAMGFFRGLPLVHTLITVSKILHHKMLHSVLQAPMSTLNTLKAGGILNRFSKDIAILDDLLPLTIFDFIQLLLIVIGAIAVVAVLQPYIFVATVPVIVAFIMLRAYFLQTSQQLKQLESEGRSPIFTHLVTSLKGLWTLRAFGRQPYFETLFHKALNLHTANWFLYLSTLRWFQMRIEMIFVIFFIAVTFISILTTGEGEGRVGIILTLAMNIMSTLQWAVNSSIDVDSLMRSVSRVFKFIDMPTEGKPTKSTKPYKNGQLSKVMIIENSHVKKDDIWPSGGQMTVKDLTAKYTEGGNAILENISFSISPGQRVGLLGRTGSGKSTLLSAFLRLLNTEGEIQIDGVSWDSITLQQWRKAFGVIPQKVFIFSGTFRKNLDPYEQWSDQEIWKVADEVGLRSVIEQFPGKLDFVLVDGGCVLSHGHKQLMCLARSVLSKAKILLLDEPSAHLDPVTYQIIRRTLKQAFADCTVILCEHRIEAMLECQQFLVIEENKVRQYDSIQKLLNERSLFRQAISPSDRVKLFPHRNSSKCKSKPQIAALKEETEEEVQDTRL

SMILES	EC50 [1]	EC50 [2]	Maximum % activity (with co-corrector)	Maximum % activity (without co-corrector)
COc1ncc(C2CCC2)cc1CO[C@H]1[C@H](C(C)(C)C)[C@@H](C(=O)O)N(C(=O)OC(C)C)[C@H]1c1ccccc1 [Example 45, (2S,3R,4S,5S)-3-tert-butyl-4-[(5-cyclobutyl-2-methoxypyridin-3-yl)methoxy]-5-phenyl-1-{[(propan-2-yl)oxy]carbonyl}pyrrolidine-2-carboxylic acid]	1000 to 10000 nM	1000 to 10000 nM	+++ (≥350)	++ (≥100 and <200)
COc1ccc(C(C)(C)C)cc1CO[C@H]1[C@H](C(C)(C)C)[C@@H](C(=O)O)N(C(=O)[C@@H]2CCC[C@@H](OC)C2)[C@H]1c1ccccc1 [Example 46, (2S,3R,4S,5S)-3-tert-butyl-4-[(5-tert-butyl-2-methoxyphenyl)methoxy]-1-[(1R,3R)-3-methoxycyclohexane-1-carbonyl]-5-phenylpyrrolidine-2-carboxylic acid]	< 1000 nM	< 1000 nM	+++ (≥350)	+++ (≥200)
COc1ccc(C(C)(C)C)cc1CO[C@H]1[C@H](C(C)(C)C)[C@@H](C(=O)O)N(C(=O)OC(C)C)[C@H]1c1ccccc1 [Example 47, (2S,3R,4S,5S)-3-tert-butyl-4-[(5-tert-butyl-2-methoxyphenyl)methoxy]-5-phenyl-1-{[(propan-2-yl)oxy]carbonyl}pyrrolidine-2-carboxylic acid]	1000 to 10000 nM	1000 to 10000 nM	+++ (≥350)	+++ (≥200)
COc1ncc(C(F)(F)F)cc1CO[C@H]1[C@H](C(C)(C)C)[C@@H](C(=O)O)N(C(=O)C2CCCCC2)[C@H]1c1ccccc1F [Example 48, (2S,3R,4S,5S)-3-tert-butyl-1-(cyclohexanecarbonyl)-5-(2-fluorophenyl)-4-{[2-methoxy-5-(trifluoromethyl)pyridin-3-yl]methoxy}pyrrolidine-2-carboxylic acid]	1000 to 10000 nM	1000 to 10000 nM	+++ (≥350)	++ (≥100 and <200)
COc1ccc(C(F)(F)F)cc1CO[C@H]1[C@H](C(C)(C)C)[C@@H](C(=O)O)N(C(=O)C2CCCCC2)[C@H]1c1ccccc1F [Example 49, (2S,3R,4S,5S)-3-tert-butyl-1-(cyclohexanecarbonyl)-5-(2-fluorophenyl)-4-{[2-methoxy-5-(trifluoromethyl)phenyl]methoxy}pyrrolidine-2-carboxylic acid]	1000 to 10000 nM	1000 to 10000 nM	+++ (≥350)	++ (≥100 and <200)
COc1ccc(C(C)(C)C)cc1CO[C@H]1[C@H](C(C)(C)C)[C@@H](C(=O)O)N(C(=O)C2CCCCC2)[C@H]1c1ccccc1F [Example 50, (2S,3R,4S,5S)-3-tert-butyl-4-[(5-tert-butyl-2-methoxyphenyl)methoxy]-1-(cyclohexanecarbonyl)-5-(2-fluorophenyl)pyrrolidine-2-carboxylic acid]	< 1000 nM	< 1000 nM	+++ (≥350)	+++ (≥200)
COc1ncc(Br)cc1CO[C@H]1[C@H](C(C)(C)C)[C@@H](C(=O)O)N(C(=O)C2CCCCC2)[C@H]1c1ccccc1F [Example 51, (2S,3R,4S,5S)-4-[(5-bromo-2-methoxypyridin-3-yl)methoxy]-3-tert-butyl-1-(cyclohexanecarbonyl)-5-(2-fluorophenyl)pyrrolidine-2-carboxylic acid]	1000 to 10000 nM	1000 to 10000 nM	+++ (≥350)	++ (≥100 and <200)
